Legend:
[1] = biological target: Cbl-b (36-427 aa truncated form, N-terminus Avi-tag) (Homo sapiens (Human), UniProt Q13191); assay: Cbl-b binding: TR-FRET displacement of BODIPY-FL probe
Method in brief: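 Avi-tagged Cbl-b 36-427 preincubated 1 h at RT with streptavidin-terbium in HEPES pH 7.5/NaCl/Triton/BSA/TCEP buffer, then 1 uM BODIPY-FL inhibitor probe plus compound added for 1 h. Probe displacement read by TR-FRET; IC50 fitted.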

Human primary T cells [2] = assay: T cell activation: CD69 surface expression by flow cytometry; type: cell-based; settings: fold over anti-CD3 stimulated background normalized to Compound 141A; for CD69 10 nM: 10 nM compound; for CD69 100 nM: 100 nM compound
Method in brief: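 Negatively selected human primary T cells (1×10^5/well, XVivo-15) were captured on plates coated with 10 μg/mL anti-CD3 (OKT3). They were exposed to serially diluted compounds in duplicate for 48 h at 37° C. CD69 was read by flow cytometry as fold over anti-CD3-only background, normalized to Compound 141A and binned into ranges.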

Human primary T cells [3] = assay: T cell activation: secreted IFN-y; type: cell-based; settings: 48 hours, fold over background normalized to Compound 141A; for IFN-y 1 nM: 1 nM compound; for IFN-y 10 nM: 10 nM compound
Method in brief: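 Negatively selected primary human T cells (1×10^5/well, serum-free XVivo-15) on plates coated with 10 μg/mL anti-CD3 were exposed to serial compound dilutions for 48 h at 37 °C. Secreted IFN-γ was measured by cytometric bead array and expressed as fold over anti-CD3/CD28 background, normalized to a reference compound and binned into ranges A–D.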

Human primary T cells [4] = assay: T cell activation: secreted IL-2; type: cell-based; settings: 48 hours, fold over background normalized to Compound 141A; for IL-2 1 nM: 1 nM compound; for IL-2 10 nM: 10 nM compound; for IL-2 100 nM: 100 nM compound
Method in brief: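 Negatively selected human primary T cells on plate-bound anti-CD3 (OKT3) in serum-free medium, treated 48 h at 37° C. with serial compound dilutions in duplicate. Secreted IL-2 by bead-based cytometric assay, expressed as fold over anti-CD3/CD28 background normalized to a reference compound, then binned into ranges.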

[5] = tested on: human peripheral blood pan-T cells; assay: T cell activation by small molecule inhibitors of Cbl-b (biomarker flow cytometry); type: cell-based; settings: 10 μM, 48 hours
Method: Cryopreserved human peripheral blood pan-T cells (StemCell, 70024) were defrosted and resuspended in Immunocult-XF T cell Expansion Medium (StemCell, 10981). Cells were plated at 8×10^5 cells per well in 24 well plates, in presence or absence of pre-coated anti-CD3 (OKT3) antibody (ThermoFisher, 16-0037-85). Pre-coating of plates was done by diluting anti-CD3 antibody to 10 μg/mL in PBS and adding 1 ml to each well. Plates were incubated at 4° C. overnight or at 37° C. for 2 hours and washed once with PBS before use. Dilution of each small molecule cbl-b inhibitor was added. Untreated cell was used as a control. Plates were incubated for 48 hours at 37° C. with 5% CO2. T cells were fixed and permeabilized with Intracellular Fixation & Permeabilization Buffer Set (ThermoFisher, 88-8824), and continuously stained with one of PE-conjugated antibody listed in Table 10. Stained T cells were then analyzed with by flow cytometry (ThermoFisher Attune NxT). The percent of positive cells of each treated group was normalized with untreated cell and sorted into bins as follows: fold over background values from 10 to 14.9: range “A;” values from 5.0 to 9.9: range “B;” values from 2.0 to 4.9: range “C;” and values from 0.1 to 1.9: range “D.” Only for Notch1, geometric mean was used.

[6] = +CD3 (pre-coated anti-CD3 OKT3)

Sequence of Cbl-b (36-427 aa truncated form, N-terminus Avi-tag) (Q13191 36-427): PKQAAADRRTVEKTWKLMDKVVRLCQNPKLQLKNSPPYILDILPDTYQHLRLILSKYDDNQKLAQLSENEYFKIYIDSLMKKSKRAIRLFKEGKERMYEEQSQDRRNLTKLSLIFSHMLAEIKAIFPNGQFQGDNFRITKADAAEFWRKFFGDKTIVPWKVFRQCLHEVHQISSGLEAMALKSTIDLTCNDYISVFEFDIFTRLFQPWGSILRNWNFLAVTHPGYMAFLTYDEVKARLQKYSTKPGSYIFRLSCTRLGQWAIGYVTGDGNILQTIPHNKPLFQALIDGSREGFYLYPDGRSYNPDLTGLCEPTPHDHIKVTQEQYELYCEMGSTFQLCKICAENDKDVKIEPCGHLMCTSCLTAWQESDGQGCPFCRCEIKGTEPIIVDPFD

Row | Structure (SMILES) | CD69 10 nM (Human primary T cells [2]) | CD69 100 nM (Human primary T cells [2]) | IFN-y 1 nM (Human primary T cells [3]) | IFN-y 10 nM (Human primary T cells [3]) | IL-2 1 nM (Human primary T cells [4]) | IL-2 10 nM (Human primary T cells [4]) | IL-2 100 nM (Human primary T cells [4]) | Notch 1, geometric mean normalized with untreated cell (fold over background) [5, 6] | pCD3zeta, percent of positive cells normalized with untreated cell (fold over background) [5, 6] | pHS1, percent of positive cells normalized with untreated cell (fold over background) [5, 6] | pLYN, percent of positive cells normalized with untreated cell (fold over background) [5, 6] | pPLCg1, percent of positive cells normalized with untreated cell (fold over background) [5, 6] | pPLCg2, percent of positive cells normalized with untreated cell (fold over background) [5, 6] | pZAP70, percent of positive cells normalized with untreated cell (fold over background) [5, 6] | Notch 1, geometric mean normalized with untreated cell (fold over background) ([5]; −CD3) | pCD3zeta, percent of positive cells normalized with untreated cell (fold over background) ([5]; −CD3) | pHS1, percent of positive cells normalized with untreated cell (fold over background) ([5]; −CD3) | pLYN, percent of positive cells normalized with untreated cell (fold over background) ([5]; −CD3) | pPLCg1, percent of positive cells normalized with untreated cell (fold over background) ([5]; −CD3) | pPLCg2, percent of positive cells normalized with untreated cell (fold over background) ([5]; −CD3) | further results
1 | CCNc1cc(C2(Cc3nncn3C)COC2)cc(N2Cc3c(SC)cc(CN4CCC[C@H](C)C4)cc3C2=O)n1 [Compound 126, 2-[6-(ethylamino)-4-{3-[(4-methyl-1,2,4-triazol-3-yl)methyl]oxetan-3-yl}pyridin-2-yl]-6-{[(3S)-3-methylpiperidin-1-yl]methyl}-4-(methylsulfanyl)-3H-isoindol-1-one] | A (values between 0.81 and 1.10: range “A”) | A (values between 0.81 and 1.10: range “A”) | B (values between 0.31 and 1.00: range “B;”) | B (values between 0.31 and 1.00: range “B;”) | C (values between 0.10 and 0.30: range “C”) | B (values between 0.31 and 0.79: range “B”) | A (between 0.80 and 1.40: range “A”) | C (values from 2.0 to 4.9: range “C;”) | D (values from 0.1 to 1.9: range “D.”) | C (values from 2.0 to 4.9: range “C;”) | D (values from 0.1 to 1.9: range “D.”) | C (values from 2.0 to 4.9: range “C;”) | D (values from 0.1 to 1.9: range “D.”) | C (values from 2.0 to 4.9: range “C;”) | D (values from 0.1 to 1.9: range “D.”) | C (values from 2.0 to 4.9: range “C;”) | B (values from 5.0 to 9.9: range “B;”) | C (values from 2.0 to 4.9: range “C;”) | C (values from 2.0 to 4.9: range “C;”) | B (values from 5.0 to 9.9: range “B;”) | IC50 [1]: 1 to 5 nM; IFN-y 100 nM (Human primary T cells [3]; 100 nM compound): A (fold over background between 1.10 and 2.00: range “A”); pZAP70, percent of positive cells normalized with untreated cell (fold over background) ([5]; −CD3): C (values from 2.0 to 4.9: range “C;”)
2 | CC1CC(c2cc(NCCC#N)nc(N3Cc4c(cc(CN5CCC[C@H](C)C5)cc4C(F)(F)F)C3=O)c2)(c2nncn2C)C1 (stereo partly drawn) [Compound 192, 3-{[6-(6-{[(3S)-3-methylpiperidin-1-yl]methyl}-1-oxo-4-(trifluoromethyl)-3H-isoindol-2-yl)-4-[(1r,3s)-3-methyl-1-(4-methyl-1,2,4-triazol-3-yl)cyclobutyl]pyridin-2-yl]amino}propanenitrile] | A (values between 0.81 and 1.10: range “A”) | X (fold over background values between 1.11 and 1.6: range “X”) | B (values between 0.31 and 1.00: range “B;”) | B (values between 0.31 and 1.00: range “B;”) | D (values between 0.01 and 0.09: range “D.”) | B (values between 0.31 and 0.79: range “B”) | X (fold over background values between 1.41 and 1.8: range “X”) | C (values from 2.0 to 4.9: range “C;”) | D (values from 0.1 to 1.9: range “D.”) | C (values from 2.0 to 4.9: range “C;”) | D (values from 0.1 to 1.9: range “D.”) | C (values from 2.0 to 4.9: range “C;”) | D (values from 0.1 to 1.9: range “D.”) | C (values from 2.0 to 4.9: range “C;”) | D (values from 0.1 to 1.9: range “D.”) | C (values from 2.0 to 4.9: range “C;”) | A (fold over background values from 10 to 14.9: range “A;”) | C (values from 2.0 to 4.9: range “C;”) | B (values from 5.0 to 9.9: range “B;”) | A (fold over background values from 10 to 14.9: range “A;”) | CD69 1 nM (Human primary T cells [2]; 1 nM compound): C (values between 0.30 and 0.60: range “C”); pZAP70, percent of positive cells normalized with untreated cell (fold over background) ([5]; −CD3): C (values from 2.0 to 4.9: range “C;”)

From patent US20250304563A1, “ACTIVATORS OF EFFECTOR T CELLS” (Orum Therapeutics, Inc., priority 2022, published 2025)
